Experimental findings from ChEMBL document CHEMBL1201862, “PubChem BioAssay data set” (2004) are described below.

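How tested: cells in 96-well plates exposed to compound for 48 hours at five concentrations. GI50 is the concentration that inhibits growth by half.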 The source made the active and inactive calls. No stated cut-off is given here; in the data, active = GI50 up to about 1.1 µM and inactive = higher. A value given as a limit tells only on which side of the number the result lay.

Some test systems named below: SK-MEL-5; IGROV-1; SNB-75; M14; OVCAR-5; NCI-H226; CCRF-CEM; CAKI-1; UACC-62; SK-MEL-28; U-251; A498; SK-OV-3; SNB-19; HCC 2998; HCT-15; NCI-H460; OVCAR-4.
Test in all cases: DTP human tumour cell line panel, 48 h

As usually defined, the GI50 is the concentration giving 50% growth inhibition. Regarding `C/N=C(\SC)N(C)c1nc(=[N+](C)C)ss1.[O-][Cl+3]([O-])([O-])[O-]`, the GI50 is 7.21 µM (inactive) with SK-MEL-5; > 100 µM (inactive) in the assay with IGROV-1; 3.81 µM (inactive) in the assay with SNB-75; > 100 µM (inactive) with M14; > 100 µM (inactive) with OVCAR-5; > 100 µM (inactive) with NCI-H226. The GI50 with CCRF-CEM is 4.17 µM (inactive); with CAKI-1, 52 µM (inactive); with UACC-62 it was 4.9 µM (inactive); with SK-MEL-28, > 100 µM (inactive); in the assay with U-251 it was > 100 µM (inactive); in the assay with A498, 4.61 µM (inactive). The GI50 in the assay on SK-OV-3 is > 100 µM (inactive); in the assay with SNB-19, > 100 µM (inactive); with HCC 2998, > 100 µM (inactive); in the assay with HCT-15, more than 100 µM.
For `COc1ccc(/C=C2\CCC(CCN3CCOCC3)C2=O)cc1` (stereo not given), the GI50 with SK-MEL-5, in the assay on IGROV-1, in the assay on SNB-75, in the assay with M14, with OVCAR-5 and in the assay on NCI-H226 was > 100 µM (inactive) in each case. Besides, the GI50 in the assay with CCRF-CEM, in the assay on NCI-H460, with OVCAR-4, in the assay on CAKI-1, in the assay with UACC-62 and with SK-MEL-28 was > 100 µM (inactive) throughout. Also, the GI50 was > 100 µM (inactive) in the assay with A498, > 100 µM (inactive) with SNB-19, > 100 µM (inactive) with HCC 2998 and more than 100 µM in the assay with HCT-15.
Regarding `CCNC(=O)O/N=C1/C=C2CC[C@@H]3C(CC[C@@]4(C)C3CC[C@@H]4OC(=O)NCC)[C@@]2(C)CC1` (stereo not given in full), the GI50 is 3.44 µM (inactive) in the assay with SK-MEL-5; 7.5 µM (inactive) with IGROV-1; 2.09 µM (inactive) in the assay on SNB-75; 2.96 µM (inactive) in the assay on M14; 6.78 µM (inactive) with OVCAR-5; 3.46 µM (inactive) in the assay with NCI-H460. Moreover, the GI50 with OVCAR-4 is 2.47 µM (inactive); in the assay on CAKI-1, 4.26 µM (inactive); in the assay on UACC-62 it was 2.67 µM (inactive); in the assay with SK-MEL-28, 3.32 µM (inactive); in the assay with U-251, 2.42 µM (inactive); in the assay on A498 it was > 100 µM (inactive). Moreover, the GI50 is 3.68 µM (inactive) in the assay with SK-OV-3, 2.48 µM (inactive) in the assay on SNB-19, 4.3 µM (inactive) with HCC 2998 and 2.77 µM in the assay with HCT-15.
With `Cc1ccc(NC(=O)SCCC(=O)O)cc1NC(=O)SCCC(=O)O`, the GI50 in the assay on IGROV-1, with M14, with OVCAR-5, with NCI-H226, with CCRF-CEM and with NCI-H460 was > 100 µM (inactive) each time. For the same compound, the GI50 in the assay on OVCAR-4, with CAKI-1, in the assay on SK-MEL-28, in the assay on U-251, in the assay on A498 and in the assay on SNB-19 was > 100 µM (inactive) each time. The GI50 was > 100 µM (inactive) with HCC 2998 and more than 100 µM in the assay on HCT-15.
In the case of `Cn1c(=O)c2nc(-c3ccc(Cl)cc3)oc2n(C)c1=O`, the GI50 with SK-MEL-5, with SNB-75, in the assay with M14, in the assay with OVCAR-5, in the assay with NCI-H226 and in the assay with CCRF-CEM was > 100 µM (inactive) in each case. Besides, the GI50 in the assay on NCI-H460, with OVCAR-4, with CAKI-1, in the assay on UACC-62, in the assay on SK-MEL-28 and in the assay on U-251 was > 100 µM (inactive) in each case. The GI50 with A498 was > 100 µM (inactive); with SNB-19, > 100 µM (inactive); with HCC 2998, > 100 µM (inactive); in the assay on HCT-15 it was more than 100 µM.
As to `CCOc1c(Cc2ccccc2)c(=O)n2c3ccccc3n3c(=O)n(C)c(=O)c1c23`, the GI50 in the assay with SK-MEL-5 is > 100 µM (inactive); with IGROV-1, > 100 µM (inactive); with SNB-75, 27.2 µM (inactive); with M14 it was > 100 µM (inactive); in the assay on OVCAR-5, > 100 µM (inactive); in the assay with NCI-H460, > 100 µM (inactive). Further, the GI50 in the assay on OVCAR-4, in the assay on CAKI-1, with UACC-62, with SK-MEL-28, with U-251 and in the assay with A498 was > 100 µM (inactive) throughout. Besides, the GI50 in the assay with SK-OV-3 was > 100 µM (inactive); with SNB-19 it was > 100 µM (inactive); in the assay with HCC 2998, > 100 µM (inactive); with HCT-15 it was more than 100 µM.
As for `CCOC(=O)/C(=C/c1ccc(OC)c(OC)c1)C(=O)c1ccccc1`, the GI50 was 14.3 µM (inactive) in the assay with SK-MEL-5; 20.2 µM (inactive) with IGROV-1; 12.4 µM (inactive) with SNB-75; 13.9 µM (inactive) with M14; 17.5 µM (inactive) with OVCAR-5; 9.64 µM (inactive) with CCRF-CEM. The GI50 in the assay with NCI-H460 is 33.3 µM (inactive); with OVCAR-4, 21.4 µM (inactive); in the assay on CAKI-1, 14.7 µM (inactive); in the assay on UACC-62, 13.2 µM (inactive); in the assay with SK-MEL-28, 13.5 µM (inactive); with U-251, 19.5 µM (inactive). Moreover, the GI50 in the assay on A498 was 22.3 µM (inactive); in the assay with SK-OV-3, 24.2 µM (inactive); in the assay on SNB-19, 15.8 µM (inactive); with HCC 2998, 18.3 µM (inactive); in the assay on HCT-15, 15.1 µM.
`COC(=O)NN1C(C)=C(C(=O)OC)C2(C#N)C(C(=O)OC)=C(C)N(NC(=O)OC)C12N` (stereo not given): the GI50 in the assay on IGROV-1, with M14, in the assay with OVCAR-5, in the assay on NCI-H226, in the assay on CCRF-CEM and in the assay on NCI-H460 was > 100 µM (inactive) each time. Moreover, the GI50 with OVCAR-4, with CAKI-1, in the assay with UACC-62, in the assay with SK-MEL-28, in the assay on U-251 and in the assay with A498 was > 100 µM (inactive) throughout. Besides, the GI50 in the assay on SK-OV-3 is > 100 µM (inactive); in the assay on SNB-19, > 100 µM (inactive); in the assay with HCC 2998 it was > 100 µM (inactive); in the assay with HCT-15, more than 100 µM.
With `N=C(N)N/N=C(/CCN1CCCC1)CC(c1ccccc1)c1c(O)c2ccccc2oc1=O` (stereo not given), the GI50 in the assay with IGROV-1 is > 100 µM (inactive); in the assay with SNB-75, > 100 µM (inactive); in the assay with M14, > 100 µM (inactive); in the assay on NCI-H226 it was > 100 µM (inactive); in the assay on CCRF-CEM, > 10 µM (inactive); with OVCAR-4, > 100 µM (inactive). Moreover, the GI50 in the assay with CAKI-1, in the assay with UACC-62, in the assay with SK-MEL-28, with SK-OV-3, in the assay on SNB-19 and in the assay with HCC 2998 was > 100 µM (inactive) each time.
Take `CN(C)CC1CCCC/C1=N/OC(=O)c1ccc(Cl)cc1` (stereo not given): the GI50 with IGROV-1, with SNB-75, with M14, in the assay with OVCAR-5, in the assay on NCI-H226 and with CCRF-CEM was > 100 µM (inactive) throughout. For the same compound, the GI50 in the assay on NCI-H460, with OVCAR-4, in the assay on CAKI-1, with UACC-62, in the assay on SK-MEL-28 and with U-251 was > 100 µM (inactive) throughout. The GI50 in the assay on A498 was > 100 µM (inactive); in the assay with SK-OV-3 it was > 100 µM (inactive); in the assay with HCC 2998, > 100 µM (inactive); in the assay with HCT-15 it was more than 100 µM.
On to `N#CC(C(=O)C(=O)Nc1ccc(Cl)c(Cl)c1)c1ccc(Cl)cc1` (stereo not given), for which the GI50 was 74.8 µM (inactive) in the assay on SK-MEL-5; > 100 µM (inactive) in the assay on IGROV-1; > 100 µM (inactive) with SNB-75; > 100 µM (inactive) with M14; > 100 µM (inactive) with OVCAR-5; > 100 µM (inactive) in the assay on NCI-H226. For the same compound, the GI50 with CCRF-CEM was 48.1 µM (inactive); in the assay with NCI-H460, 32.1 µM (inactive); in the assay on CAKI-1, > 100 µM (inactive); in the assay on UACC-62 it was 30.5 µM (inactive); in the assay on SK-MEL-28, > 100 µM (inactive); with U-251 it was 40.8 µM (inactive). The GI50 with A498 was > 100 µM (inactive); in the assay with SK-OV-3 it was > 100 µM (inactive); in the assay with SNB-19, 65.5 µM (inactive); with HCC 2998, 51.9 µM (inactive); with HCT-15, 32.5 µM.
For `CCCCCCCCCOC(=S)NCCCCC`, the GI50 with SK-MEL-5 is 21.5 µM (inactive); in the assay with IGROV-1, 38.4 µM (inactive); with SNB-75 it was 42.3 µM (inactive); in the assay with M14, 28.6 µM (inactive); with CCRF-CEM it was 22.9 µM (inactive); in the assay on NCI-H460 it was 28 µM (inactive). Besides, the GI50 in the assay with OVCAR-4 was 33.9 µM (inactive); in the assay on CAKI-1, 27.8 µM (inactive); in the assay on UACC-62, 29.2 µM (inactive); in the assay with SK-MEL-28, 38.7 µM (inactive); in the assay with U-251, 21.7 µM (inactive); in the assay on A498, 24.3 µM (inactive). Moreover, the GI50 is 29.4 µM (inactive) in the assay on SK-OV-3, 35.1 µM (inactive) with SNB-19, 34.4 µM (inactive) with HCC 2998 and 23.9 µM in the assay on HCT-15.
With `C#CC[C@]12CC(=O)CC[C@H]1CC(=O)C2`, the GI50 in the assay with SK-MEL-5, in the assay on IGROV-1, in the assay with SNB-75, with M14, in the assay on NCI-H226 and in the assay on CCRF-CEM was > 100 µM (inactive) in each case. The GI50 in the assay on NCI-H460, in the assay on OVCAR-4, in the assay with CAKI-1, with UACC-62, in the assay with SK-MEL-28 and with U-251 was > 100 µM (inactive) in each case. Moreover, the GI50 was > 100 µM (inactive) in the assay with A498; > 100 µM (inactive) in the assay with SK-OV-3; > 100 µM (inactive) in the assay with SNB-19; > 100 µM (inactive) in the assay on HCC 2998; more than 100 µM in the assay on HCT-15.
